Data from ChEMBL document CHEMBL1134122, “Substituted indole-5-carboxamides and -acetamides as potent nonpeptide GnRH receptor antagonists” (Bioorg Med Chem Lett, 2001).

Assays:
[1] = target: T1, Gonadotropin-releasing hormone receptor (Rattus norvegicus, UniProt P30969); assay: Inhibition GnRH-stimulated luteinizing hormone (LH) release from rat pituitary cells; format: functional, cell-based, Pituitary gland cell
T1 sequence (P30969 whole entry): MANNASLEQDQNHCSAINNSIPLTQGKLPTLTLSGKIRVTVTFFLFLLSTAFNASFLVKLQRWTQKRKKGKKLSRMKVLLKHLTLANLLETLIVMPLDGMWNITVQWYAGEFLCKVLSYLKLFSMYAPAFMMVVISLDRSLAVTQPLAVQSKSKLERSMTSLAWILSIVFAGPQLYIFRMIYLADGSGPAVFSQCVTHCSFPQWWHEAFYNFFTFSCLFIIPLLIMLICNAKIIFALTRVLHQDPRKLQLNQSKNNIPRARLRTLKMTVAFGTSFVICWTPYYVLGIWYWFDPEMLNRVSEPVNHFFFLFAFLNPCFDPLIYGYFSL

[2] = target: T1, Gonadotropin-releasing hormone receptor; assay: Inhibition of [125I]buserelin binding to rat pituitary Gonadotropin-releasing hormone receptor, in the presence of 0.1% bovine serum albumin.
[3] = target: T1, Gonadotropin-releasing hormone receptor; assay: Inhibition of [125I]buserelin binding to rat pituitary Gonadotropin-releasing hormone receptor, in the absence of bovine serum albumin (BSA)

IC50 [1] | IC50 [2] | IC50 [3] | Structure (SMILES)
> 6200 nM | – | – | Cc1cc(C)cc(-c2[nH]c3ccccc3c2CCNCCCCc2ccc(O)cc2)c1
95 nM | 0.2 nM | 3 nM | Cc1cc(C)cc(-c2[nH]c3ccc(C(=O)N4C(C)CCC4C)cc3c2CCNCCCCc2ccc(NS(C)(=O)=O)cc2)c1 (stereo not given)
42 nM | 0.2 nM | 2 nM | CCN(CC)C(=O)C(C)(C)c1ccc2[nH]c(-c3cc(C)cc(C)c3)c(CCNCCCCc3ccc(NS(C)(=O)=O)cc3)c2c1
800 nM | – | 4 nM | Cc1cc(C)cc(-c2[nH]c3ccc(C(=O)N4CCOCC4)cc3c2CCNCCCCc2ccc(O)cc2)c1
65 nM | 0.2 nM | 3 nM | Cc1cc(C)cc(-c2[nH]c3ccc(C(C)(C)C(=O)N4C(C)CCC4C)cc3c2CCNCCCCc2ccc(NS(C)(=O)=O)cc2)c1 (stereo not given)
140 nM | – | 5 nM | CCCN(CCC)C(=O)c1ccc2[nH]c(-c3cc(C)cc(C)c3)c(CCNCCCCc3ccc(NS(C)(=O)=O)cc3)c2c1
690 nM | – | 2 nM | Cc1cc(C)cc(-c2[nH]c3ccc(C(=O)N(C)C)cc3c2CCNCCCCc2ccc(NS(C)(=O)=O)cc2)c1
2000 nM | – | 2 nM | CCOC(=O)Cc1ccc2[nH]c(-c3cc(C)cc(C)c3)c(CCNCCCCc3ccc(NS(C)(=O)=O)cc3)c2c1
32 nM | 0.4 nM | – | Cc1cc(C)cc(-c2[nH]c3ccc(C(=O)N(CC(C)C)CC(C)C)cc3c2CCNCCCCc2ccc(NS(C)(=O)=O)cc2)c1
70 nM | 0.4 nM | 5 nM | CCCN(CCC)C(=O)C(C)(C)c1ccc2[nH]c(-c3cc(C)cc(C)c3)c(CCNCCCCc3ccc(NS(C)(=O)=O)cc3)c2c1
160 nM | 0.1 nM | 3 nM | Cc1cc(C)cc(-c2[nH]c3ccc(C(C)(C)C(=O)N(C)C)cc3c2CCNCCCCc2ccc(NS(C)(=O)=O)cc2)c1
150 nM | 0.3 nM | 3 nM | CCOC(=O)C(C)(C)c1ccc2[nH]c(-c3cc(C)cc(C)c3)c(CCNCCCCc3ccc(NS(C)(=O)=O)cc3)c2c1
320 nM | 0.1 nM | 2 nM | Cc1cc(C)cc(-c2[nH]c3ccc(CC(=O)N(C)C)cc3c2CCNCCCCc2ccc(NS(C)(=O)=O)cc2)c1
610 nM | 0.5 nM | 4 nM | CCOC(=O)C(C)c1ccc2[nH]c(-c3cc(C)cc(C)c3)c(CCNCCCCc3ccc(NS(C)(=O)=O)cc3)c2c1 (stereo not given)
400 nM | 0.2 nM | 2 nM | Cc1cc(C)cc(-c2[nH]c3ccc(C(=O)N4CCOCC4)cc3c2CCNCCCCc2ccc(NS(C)(=O)=O)cc2)c1
220 nM | – | 2 nM | Cc1cc(C)cc(-c2[nH]c3ccc(C(=O)N4CCCCC4)cc3c2CCNCCCCc2ccc(NS(C)(=O)=O)cc2)c1
540 nM | 0.5 nM | 6 nM | CCN(CC)C(=O)c1ccc2[nH]c(-c3cc(C)cc(C)c3)c(CCNCCCCc3ccc(O)cc3)c2c1
– | – | 24 nM | Cc1cc(C)cc(-c2[nH]c3ccc(C(=O)NCc4ccccc4)cc3c2CCNCCCCc2ccc(O)cc2)c1

IC50 [1] | IC50 [2] | IC50 [3] | Structure (SMILES)
130 nM | 0.2 nM | 2 nM | CCN(CC)C(=O)C(C)c1ccc2[nH]c(-c3cc(C)cc(C)c3)c(CCNCCCCc3ccc(NS(C)(=O)=O)cc3)c2c1 (stereo not given)
270 nM | 0.2 nM | 2 nM | CCN(CC)C(=O)c1ccc2[nH]c(-c3cc(C)cc(C)c3)c(CCNCCCCc3ccc(NS(C)(=O)=O)cc3)c2c1
240 nM | – | 4 nM | CCCCN(CC)C(=O)c1ccc2[nH]c(-c3cc(C)cc(C)c3)c(CCNCCCCc3ccc(NS(C)(=O)=O)cc3)c2c1
72 nM | 0.3 nM | 3 nM | Cc1cc(C)cc(-c2[nH]c3ccc(C(=O)N(C(C)C)C(C)C)cc3c2CCNCCCCc2ccc(NS(C)(=O)=O)cc2)c1
81 nM | 0.12 nM | – | Cc1cc(C)cc(-c2[nH]c3ccc(C(C)(C)C(=O)N4CCOCC4)cc3c2CCNCCCCc2ccc(NS(C)(=O)=O)cc2)c1
380 nM | – | – | Cc1cc(C)cc(-c2[nH]c3ccc(C(=O)N(CC(C)C)CC(C)C)cc3c2CCNCCCCc2ccc(O)cc2)c1
2400 nM | – | 6 nM | CCNC(=O)c1ccc2[nH]c(-c3cc(C)cc(C)c3)c(CCNCCCCc3ccc(NS(C)(=O)=O)cc3)c2c1
– | – | 32 nM | CCOC(=O)c1ccc2[nH]c(-c3cc(C)cc(C)c3)c(CCNCCCCc3ccc(O)cc3)c2c1
> 6200 nM | – | 14 nM | CCOC(=O)c1ccc2[nH]c(-c3cc(C)cc(C)c3)c(CCNCCCCc3ccc(NS(C)(=O)=O)cc3)c2c1
40 nM | 0.2 nM | 2 nM | Cc1cc(C)cc(-c2[nH]c3ccc(C(C)(C)C(=O)N4CCCC4)cc3c2CCNCCCCc2ccc(NS(C)(=O)=O)cc2)c1
510 nM | 0.2 nM | 4 nM | Cc1cc(C)cc(-c2[nH]c3ccc(C(=O)N4CCCC4)cc3c2CCNCCCCc2ccc(NS(C)(=O)=O)cc2)c1
660 nM | 0.8 nM | – | CCN(C(=O)c1ccc2[nH]c(-c3cc(C)cc(C)c3)c(CCNCCCCc3ccc(NS(C)(=O)=O)cc3)c2c1)C(C)(C)C
120 nM | – | 3 nM | CCN(C(=O)c1ccc2[nH]c(-c3cc(C)cc(C)c3)c(CCNCCCCc3ccc(NS(C)(=O)=O)cc3)c2c1)C(C)C
130 nM | 0.2 nM | 3 nM | CCN(CC)C(=O)Cc1ccc2[nH]c(-c3cc(C)cc(C)c3)c(CCNCCCCc3ccc(NS(C)(=O)=O)cc3)c2c1
210 nM | 0.4 nM | 3 nM | Cc1cc(C)cc(-c2[nH]c3ccc(C(=O)N4C5CCC4CC5)cc3c2CCNCCCCc2ccc(NS(C)(=O)=O)cc2)c1
95 nM | 0.1 nM | 3 nM | Cc1cc(C)cc(-c2[nH]c3ccc(CC(=O)N4C(C)CCC4C)cc3c2CCNCCCCc2ccc(NS(C)(=O)=O)cc2)c1 (stereo not given)
820 nM | – | 5 nM | Cc1cc(C)cc(-c2[nH]c3ccc(C(=O)N(C)C)cc3c2CCNCCCCc2ccc(O)cc2)c1

Structure (SMILES) | IC50 [1] | IC50 [2] | IC50 [3]
Cc1cc(C)cc(-c2[nH]c3ccc(OC(=O)N(C)C)cc3c2CCNCCCCc2ccc(O)cc2)c1 | – | – | 3 nM
